The values that follow come from publication PMC5772648, “Targeted NUDT5 inhibitors block hormone signaling in breast cancer cells” (Nature Communications, 2018).

The target in one series is T1, human NUDT5 (Homo sapiens, UniProt Q9UKK9).
T1 construct: His-tag (N); made in house; host or cells: E. coli BL21 (DE3) R3 pRARE2
Kind of series: enzyme-coupled malachite green assay (MG assay), ADPR hydrolysis. Type of series: biochemical. The note with it: for IC50: NUDT5, ADPR substrate. The text has this: We next sought to develop small molecule NUDT5 inhibitors to further probe the role of NUDT5 in ADPR metabolism. A high-throughput, screening-compatible NUDT5 inhibition assay was established using slight modifications to the aforementioned MG procedure (Fig. 2a)[15],[27]. Briefly, ADPR, NUDT5 and calf intestinal alkaline phosphatase (CIP) were combined in a coupled enzymatic assay, as described in the online methods. In turn, ADPR was hydrolyzed to AMP and R5P by NUDT5, and the released R5P was further degraded to ribose and inorganic phosphate (Pi) by CIP. Free Pi was subsequently detected using the malachite green reagent. The screen was conducted using a combination of the Chemical Biology Consortium of Sweden (CBCS) primary screening set and several commercial libraries from Enamine, TimTec, Maybridge and ChemDiv. In total, ~72 000 distinct chemical entities were screened for their potential inhibition of NUDT5 at a concentration of 10 µM (Supplementary Table 1, Supplementary Fig. 2a, b). Execution of this screening campaign was split between two different occasions. The screening performance in the two screening campaigns was excellent (average z´ factors of 0.87 and 0.85, Supplementary Fig. 2c), resulting in a hit limit as defined by the average and three standard deviations of the library compound responses of 10.1 and 18.4% inhibition, respectively (Supplementary Table 1, Supplementary Fig. 2a, b). This translated to 53 and 475 hits (0.3 and 0.8% hit rate, respectively), yielding 528 total hits from the 2 separate screening occasions.
Activity of NUDT5 and MTH1 with a panel of potential substrates [2-OH-ATP, 2-OH-dATP, 8-oxo-dGDP, GDP and 8-oxo-GTP (Jena Biosciences), 8-oxo-dGTP (TriLink Biotechnologies), dATP (ThermoFisher Scientific), dGTP, GTP and ADPR (Sigma-Aldrich)] was assessed in reaction buffer (100 mM Tris Acetate pH 7.5, 40 mM NaCl, 10 mM Mg Acetate) at 22 °C. For ADPR, alkaline phosphatase from bovine intestinal mucosa (10 U/ml; Sigma-Aldrich) was added as coupled enzyme, while other substrates were coupled to E. coli pyrophosphatase (0.2 U/mL, Sigma-Aldrich). After 30 min incubation with shaking, formed inorganic phosphate was detected by addition of malachite green reagent. Absorbance at 630 nm was read after 15 min incubation with shaking using a Hidex Sense plate reader. The potency of NUDT5 inhibitors was assessed similarly as above (and in the screening campaign) by monitoring ADPR hydrolysis; details are in the Supplementary Information.
Small molecule library composition
The screen for NUDT5 inhibitors was conducted at Chemical Biology Consortium Sweden (www.cbcs.se). Two screening campaigns completed in August 2012 and in March 2013 respectively comprised a combination of in-house and commercially available libraries, amounting to a total of 75679 compounds. The commercial compounds originate from Enamine, TimTec, MayBridge and ChemDiv. The in-house libraries were donated by Biovitrum AB, Sweden (the origin and composition is described previously)2. For long-term storage, the compounds are kept frozen at - 20°C as 10 mM solutions in dimethyl sulfoxide (DMSO) under low humidity conditions in REMP 96 Storage Tube Racks in a REMP Small-Size Store™. To facilitate screening an aliquot of the stock solutions have been transferred to Labcyte 384 LDV plates (LP-0200) to enable dispensing using an Echo 550™ acoustic liquid handler (LabCyte). For both screening campaigns 40 nl of the compound solutions were dispensed directly into columns 1-22 of the 384-well assay plates (Nunc 242757), while columns 23 and 24 were reserved for controls as outlined below. The plates were sealed with a Peelable Aluminium seal (Agilent 24210-001) using a PlateLoc thermal microplate sealer (Agilent) and kept at room temperature until used. The final compound concentration in the screen was 10 µM with a final DMSO concentration of […]
Enzymatic assay applied for screening and hit confirmation […]

A further series has as its target T2, purified NUDT5 (Homo sapiens, UniProt Q9UKK9).
T2 construct: His-tag (N); made in house; host or cells: E. coli BL21 (DE3) R3 pRARE2
As to the kind of experiment: differential scanning fluorimetry (DSF). The settings on record: 20 µM compound; for Tm: DMSO 74; for ΔTm at 20 µM: read-out: shift in melting temperature (Tm). Type of series: binding. On the procedure:
Differential scanning fluorimetry (DSF)[5],[47] was performed with 5 µM purified NUDT5, 20 µM NUDT5 inhibitor and 5x Sypro Orange added per well added to a 96-well PCR plate. Each experiment was performed in duplicate. Temperature gradients from 25 to 95 °C (increasing at a rate of 1 °C per minute) were completed with readings every minute on a CFX96 Real-Time PCR machine (Bio-Rad). Melting temperatures were determined as the minimum of the negative first derivative plots with CFX Maestro software (Bio-Rad).

The target of series [1] is T3, NUDT5 in intact HL-60 cells (Homo sapiens, UniProt Q9UKK9).
T3 construct: endogenous in cells; host or cells: HL-60
As to the kind of experiment: intact cell CETSA. In kind it is cell-based. The note with it: 20 µM, 83 °C. How it is done: For CETSA experiments with cells treated in culture, 1 × 10^6 HL-60 were treated with DMSO (0.1 % v/v final) or 20 µM compound for 3 h at 37 °C and 5% CO2 in a humidified incubator. T47D^WT cells were treated instead with 80 µM TH1659, 15 µM TH5423/5424 and 1.5 µM TH5427. The cells were harvested, washed twice with PBS and resuspended in TBS with protease inhibitors, as above. Heating was identical as before, except that immediately following heating, the cell suspensions were snap frozen in a dry ice/ethanol bath and freeze-thawed, as previously, to lyse cells. Centrifugation at 20 000 × g for 20 min at 4 °C removed cellular debris and protein aggregates, and lysates were prepared for western blotting.

A short description of a further series: solubility. Type of series: physicochemical.
The target in series [2] is T4, NUDT5 in HL-60 cell lysates (Homo sapiens, UniProt Q9UKK9).
T4 construct: endogenous in cells; host or cells: HL-60
Kind of series: cell lysate CETSA (HT-CETSA). The settings on record: 20 µM, 83 °C. In kind it is binding. On the procedure:
Target engagement in cells was determined by the cellular thermal shift assay (CETSA)[29]. Briefly, cell lysate thermal shift assays were performed with 1 × 10^6 HL-60 cells per temperature/condition. Cells were collected and washed once with PBS and resuspended in TBS with protease inhibitor cocktail (Mini cOmplete, EDTA-free, Roche) at 60 µL/1 × 10^6 cells. The cells were then aliquoted and lysed by freeze-thawing three times with 3-min incubations (3x, 3 min.+3 min.) using an ethanol/dry ice bath and water bath at 37 °C. The lysates were then centrifuged at 20,000×g for 20 min at 4 °C to remove cellular debris. Supernatants were then transferred to PCR strip tubes and treated with 0.5 µL DMSO (0.8% v/v final) or 20 µM inhibitor for 20 min at room temperature. Lysates with compounds were heated at the indicated temperature in a Veriti Thermal Cycler (Applied Biosystems) for 3 min, then cooled for another 3 min at room temperature. They were then centrifuged at 20 000 × g for 20 min at 4 °C to pellet protein aggregates and 45 µL was removed and prepared for western blotting analysis.

Where [3] appears, read: read-out: MG assay IC50 (Biochemical IC50).

Like-named read-outs stand apart in the source and are kept apart here.

For the compound `Cn1c(=O)c2c(ncn2Cc2nnc(-c3ccc(Cl)c(Cl)c3)o2)n(C)c1=O` [TH1533], the “MG assay potency compared with TH1713” value on human NUDT5 was “equipotent with TH1713”. Further, the IC50 at human NUDT5 (setting [3]) is 0.07 µM. Moreover, at purified NUDT5, the Tm is 79 °C and the ΔTm at 20 µM was 5 °C. The “NUDT5 stabilization in intact cells” value in series [1] is “showed activity by CETSA in intact cells”. The “solubility” value in the series “solubility” was “very poor solubility”.
With `O=C(O)/C=C/c1ccc(O)cc1` [p-coumaric acid, reference compound], the IC50 at human NUDT5 (read-out: MG assay IC50) is greater than 100 µM.
The same measure, in the same setting: next, `COc1ccc2c(c[n+](C)c3c4cc5c(cc4ccc23)OCO5)c1OC` [chelerythrine, reference compound]: greater than 100 µM.
In the case of `O=c1cc(-c2ccccc2)oc2ccccc12` [flavone, reference compound], the IC50 on human NUDT5 (read-out: MG assay IC50) was greater than 100 µM.
Turning to `Cc1cccc(-c2nnc(Cn3cnc4c3c(=O)n(C)c(=O)n4C)o2)c1` [TH1167], the IC50 at human NUDT5 (read-out: MG assay IC50) was determined as 0.58 µM. In series [2], the “NUDT5 stabilization in cell lysates” value was “did not show sufficient target engagement”. Further, in series [1], the “NUDT5 stabilization in intact cells” value was “did not show sufficient target engagement”.
For `O=c1cc(N2CCOCC2)oc2c(-c3ccccc3)cccc12` [LY294002, reference compound], the IC50 on human NUDT5 (read-out: MG assay IC50) is greater than 100 µM.
Consider `Cc1cccc(-c2nnc(Cn3c(N(C)C)nc4c3c(=O)n(C)c(=O)n4C)o2)c1` [TH1713], for which the “fold greater potency over TH1167” value at human NUDT5 (MG assay) is given as “more than 8 fold”. Moreover, at human NUDT5 (setting [3]), the IC50 amounted to 0.07 µM. In addition, on purified NUDT5, the Tm turned out to be 79 °C and the ΔTm at 20 µM turned out to be 5 °C. Also, the “NUDT5 stabilization in intact cells” value in series [1] was “only TH1533 showed activity by CETSA in intact cells”. Further, the “solubility” value in the series “solubility” is “very poor solubility”.
